The values that follow are results of earlier work, collected in patent US20100069356A1, “DIBENZO[…] DOPAMINE, ALPHA […], AND SEROTONIN RECEPTORS” (AUSPEX PHARMACEUTICALS, INC., priority 2008, published 2010).

The conditions of this series: in vivo.

As a reminder, the half-life is the time needed for the level to fall by half in the phase considered. For the compound `OCCOCCN1CCN(C2=Nc3ccccc3Sc3ccccc32)CC1` [Quetiapine, 2-(2-(4-dibenzo[b,f][1,4]thiazepine-11-yl-1-piperazinyl)ethoxy)ethanol], the half-life is around 6 h.
